Columns and labels:
ryegrass, Italian [1] = assay: Test A postemergence; format: in vivo, Lolium multiflorum; details: 0 to 100 scale (0 no effect, 100 complete control), approx. 10 d
In short: (§1)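 Seeds sown in loam soil–sand blend received a directed preemergence soil spray of test chemical in non-phytotoxic solvent with surfactant; postemergence plants, 2 to 10 cm at one- to two-leaf stage, were sprayed with the same formulation. Injury visually rated versus untreated controls after ~10 d in greenhouse, 0–100 scale.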

wild mustard = assay: Test D preemergence; format: in vivo, Sinapis arvensis; details: for Plant response rating (0 to 100), Mustard, Wild: 16 g ai/ha, 0 is no effect, 100 is complete control; for Plant response rating: Mustard, Wild: scale 0 to 100
Description: (§2) Seeds of plant species selected from bluegrass (annual bluegrass, Poa annua), blackgrass (Alopecurus myosuroides), canarygrass (Phalaris minor), chickweed (common chickweed, Stellaria media), galium (catchweed bedstraw, Galium aparine), bromegrass, down (downy bromegrass, Bromus tectorum), Russian thistle (Salsola kali), field poppy (Papaver rhoeas), field violet (Viola arvensis), foxtail, green (green foxtail, Setaria viridis), deadnettle (henbit deadnettle, Lamium amplexicaule), ryegrass, Ital. (Italian ryegrass, Lolium multiflorum), kochia (Kochia scoparia), lambsquarters (Chenopodium album), oilseed rape (Brassica napus), pigweed (Amaranthus retroflexus), chamomile (scentless chamomile, Matricaria inodora), speedwell (bird's-eye speedwell, Veronica persica), barley, spring (spring barley, Hordeum vulgare), wheat, spring (spring wheat, Triticum aestivum), buckwheat, wild (wild buckwheat, Polygonum convolvulus), wild mustard (Sinapis arvensis), oat, wild (wild oat, Avena fatua), radish, wild (wild radish, Raphanus raphanistrum), […]), barley, winter (winter barley, Hordeum vulgare), and wheat, winter (winter wheat, Triticum aestivum) were planted into a silt loam soil and treated preemergence with test chemicals formulated in a non-phytotoxic solvent mixture which included a surfactant. At the same time, these species were planted in pots containing Sunshine Redi-Earth® planting medium comprising spaghnum peat moss, vermiculite, starter nutrients and dolomitic limestone and treated with postemergence applications of the test chemicals formulated in the same manner. Plants ranged in height from 2 to 18 cm (1- to 4-leaf stage). Treated plants and controls were maintained in a controlled growth environment for 14 to 21 d after which time all species were compared to controls and visually evaluated. […] A dash (-) response means no test result.

windgrass = assay: Test D preemergence; format: in vivo, Apera spica-venti; details: for Plant response rating (0 to 100), Windgrass: 16 g ai/ha, 0 is no effect, 100 is complete control; for Plant response rating: Windgrass: scale 0 to 100
Description: as §2

pigweed [2] = assay: Test D postemergence; format: in vivo, Amaranthus retroflexus; details: scale 0 to 100
Description: as §2

ragweed = assay: Test A preemergence; format: in vivo, Ambrosia elatior; details: 0 to 100 scale (0 no effect, 100 complete control)
In short: as §1

foxtail, giant = assay: Test C preemergence; format: in vivo, Setaria faberii; details: for Plant response rating (scale of 0 to 100 where 0 is no effect and 100 is complete control): Foxtail, Giant, preemergence; for Foxtail, Giant plant response rating (0 to 100): Preemergence, visual rating after 13 to 15 d
Description: (§3) Seeds of plant species selected from blackgrass (Alopecurus myosuroides), ryegrass, Italian (Italian ryegrass, Lolium multiflorum), wheat (winter wheat, Triticum aestivum), galium (catchweed bedstraw, Galium aparine), corn (Zea mays), crabgrass, large (large crabgrass, Digitaria sanguinalis), foxtail, giant, (giant foxtail, Setaria faberii), johnsongrass (Sorghum halepense), lambsquarters (Chenopodium album), morningglory (Ipomoea coccinea), nutsedge, yellow (yellow nutsedge, Cyperus esculentus), pigweed (Amaranthus retroflexus), ragweed (common ragweed, Ambrosia elatior), soybean (Glycine max), barnyardgrass (Echinochloa crus-galli), oilseed rape (Brassica napus), waterhemp (common waterhemp, Amaranthus rudis), and velvetleaf (Abutilon theophrasti) were planted into a blend of loam soil and sand and treated preemergence with test chemicals formulated in a non-phytotoxic solvent mixture which included a surfactant. At the same time, plants selected from these crop and weed species and also chickweed (common chickweed, Stellaria media), oat, wild (wild oat, Avena fatua), and kochia (Kochia scoparia), were planted in pots containing Sunshine Redi-Earth® planting medium comprising spaghnum peat moss, vermiculite, starter nutrients and dolomitic limestone and treated with postemergence applications of test chemicals formulated in the same manner. Plants ranged in height from 2 to 18 cm (1- to 4-leaf stage) for postemergence treatments. […] A dash (-) response means no test result.

wheat (winter wheat) = assay: Test C preemergence; format: in vivo, Triticum aestivum; details: for Wheat plant response rating (0 to 100): Preemergence, visual rating after 13 to 15 d; for Plant response rating (scale of 0 to 100 where 0 is no effect and 100 is complete control): Wheat, preemergence, 250 g ai/ha
Description: as §3

oilseed rape = assay: Test D preemergence; format: in vivo, Brassica napus; details: for Plant response rating (0 to 100), Oilseed Rape: 16 g ai/ha, 0 is no effect, 100 is complete control; for Plant response rating: Oilseed Rape: scale 0 to 100
Description: as §2

galium = assay: Test D postemergence; format: in vivo, Galium aparine; details: scale 0 to 100
Description: as §2

barley, winter = assay: Test D preemergence; format: in vivo, Hordeum vulgare; details: for Plant response rating (0 to 100), Barley, Winter: 16 g ai/ha, 0 is no effect, 100 is complete control; for Plant response rating: Barley, Winter: scale 0 to 100
Description: as §2

barley, spring = assay: Test D preemergence; format: in vivo, Hordeum vulgare; details: for Plant response rating (0 to 100), Barley, Spring: 16 g ai/ha, 0 is no effect, 100 is complete control; for Plant response rating: Barley, Spring: scale 0 to 100
Description: as §2

field poppy = assay: Test D postemergence; format: in vivo, Papaver rhoeas; details: scale 0 to 100
Description: as §2

ryegrass, Italian [3] = assay: Test A preemergence; format: in vivo, Lolium multiflorum; details: 0 to 100 scale (0 no effect, 100 complete control)
In short: as §1

pigweed [4] = assay: Test D preemergence; format: in vivo, Amaranthus retroflexus; details: for Plant response rating (0 to 100), Pigweed: 16 g ai/ha, 0 is no effect, 100 is complete control; for Plant response rating: Pigweed: scale 0 to 100
Description: as §2

In the case of `FC(F)(F)COc1nc(-c2ccccc2)nn1Cc1ccnc(C(F)(F)F)c1` [Compound 24], the “Plant response rating, Ryegrass, Italian” value (ryegrass, Italian [1]; 125 g ai/ha) is reported as 30, the “Plant response rating, Ryegrass, Italian” value (ryegrass, Italian [1]; 500 g ai/ha) is reported as 60 and the “Plant response rating (0 to 100), Mustard, Wild” value (wild mustard) is reported as 65. For the same molecule, the “Plant response rating: Mustard, Wild” value (wild mustard; 62 g ai/ha) was 100, the “Plant response rating: Mustard, Wild” value (wild mustard; 125 g ai/ha) was 100 and the “Plant response rating (0 to 100), Windgrass” value (windgrass) was 0. The “Plant response rating: Windgrass” value (windgrass; 62 g ai/ha) was 65, the “Plant response rating: Windgrass” value (windgrass; 125 g ai/ha) was 100 and the “Plant response rating: Pigweed” value (pigweed [2]; 16 g ai/ha) was 95. For the same molecule, the “Plant response rating: Pigweed” value (pigweed [2]; 31 g ai/ha) was 100, the “Plant response rating: Pigweed” value (pigweed [2]; 62 g ai/ha) was 100 and the “Plant response rating: Pigweed” value (pigweed [2]; 125 g ai/ha) was 100. The “Plant response rating, Ragweed” value (ragweed; 500 g ai/ha, approx. 10 d) was 40, the “Plant response rating (scale of 0 to 100 where 0 is no effect and 100 is complete control)” value (foxtail, giant; 125 g ai/ha) was 98 and the “Plant response rating (scale of 0 to 100 where 0 is no effect and 100 is complete control)” value (foxtail, giant; 250 g ai/ha) was 100. For the same molecule, the “Foxtail, Giant plant response rating (0 to 100)” value (“Foxtail … (0 to 100)” below) (foxtail, giant; 31 g ai/ha) was 80, the “Foxtail … (0 to 100)” value (foxtail, giant; 62 g ai/ha) was 95 and the “Wheat plant response rating (0 to 100)” value (wheat (winter wheat); 31 g ai/ha) was 0. The “Wheat plant response rating (0 to 100)” value (wheat (winter wheat); 62 g ai/ha) was 0, the “Plant response rating (scale of 0 to 100 where 0 is no effect and 100 is complete control)” value (wheat (winter wheat)) was 5 and the “Plant response rating (0 to 100), Oilseed Rape” value (oilseed rape) was 15. For the same molecule, the “Plant response rating: Oilseed Rape” value (oilseed rape; 62 g ai/ha) was 55, the “Plant response rating: Oilseed Rape” value (oilseed rape; 125 g ai/ha) was 70 and the “Plant response rating: Galium” value (galium; 16 g ai/ha) was 55. For the same molecule, the “Plant response rating: Galium” value (galium; 31 g ai/ha) was 70, the “Plant response rating: Galium” value (galium; 62 g ai/ha) was 65 and the “Plant response rating: Galium” value (galium; 125 g ai/ha) was 75. The “Plant response rating (0 to 100), Barley, Winter” value (barley, winter) was 15, the “Plant response rating: Barley, Winter” value (barley, winter; 31 g ai/ha) was 15 and the “Plant response rating: Barley, Winter” value (barley, winter; 62 g ai/ha) was 25. For the same molecule, the “Plant response rating: Barley, Winter” value (barley, winter; 125 g ai/ha) was 25, the “Plant response rating (0 to 100), Barley, Spring” value (barley, spring) was 20 and the “Plant response rating: Barley, Spring” value (barley, spring; 31 g ai/ha) was 25. For the same molecule, the “Plant response rating: Barley, Spring” value (barley, spring; 62 g ai/ha) was 30, the “Plant response rating: Barley, Spring” value (barley, spring; 125 g ai/ha) was 35 and the “Plant response rating: Field Poppy” value (field poppy; 16 g ai/ha) was 60. The “Plant response rating: Field Poppy” value (field poppy; 31 g ai/ha) was 75, the “Plant response rating: Field Poppy” value (field poppy; 62 g ai/ha) was 80 and the “Plant response rating: Field Poppy” value (field poppy; 125 g ai/ha) was 100. For the same molecule, the “Plant response rating, Ryegrass, Italian” value (ryegrass, Italian [3]; 125 g ai/ha) was 70, the “Plant response rating, Ryegrass, Italian” value (ryegrass, Italian [3]; 500 g ai/ha, approx. 10 d) was 80 and the “Plant response rating (0 to 100), Pigweed” value (pigweed [4]) was 95. The “Plant response rating: Pigweed” value (pigweed [4]; 62 g ai/ha) was 100 and the “Plant response rating: Pigweed” value (pigweed [4]; 125 g ai/ha) was 100.

In the case of `FC(F)(F)COc1nc(-c2ccc(Cl)cc2)nn1Cc1ccnc(C(F)(F)F)c1` [Compound 31], the “Plant response rating, Ryegrass, Italian” value (ryegrass, Italian [1]; 125 g ai/ha) is reported as 50, the “Plant response rating, Ryegrass, Italian” value (ryegrass, Italian [1]; 500 g ai/ha) is reported as 80 and the “Plant response rating (0 to 100), Mustard, Wild” value (wild mustard) is reported as 100. The “Plant response rating: Mustard, Wild” value (wild mustard; 62 g ai/ha) was 100, the “Plant response rating: Mustard, Wild” value (wild mustard; 125 g ai/ha) was 100 and the “Plant response rating (0 to 100), Windgrass” value (windgrass) was 60. For the same molecule, the “Plant response rating: Windgrass” value (windgrass; 62 g ai/ha) was 100, the “Plant response rating: Windgrass” value (windgrass; 125 g ai/ha) was 100 and the “Plant response rating: Pigweed” value (pigweed [2]; 16 g ai/ha) was 100. For the same molecule, the “Plant response rating: Pigweed” value (pigweed [2]; 31 g ai/ha) was 100, the “Plant response rating: Pigweed” value (pigweed [2]; 62 g ai/ha) was 100 and the “Plant response rating: Pigweed” value (pigweed [2]; 125 g ai/ha) was 100. For the same molecule, the “Plant response rating, Ragweed” value (ragweed; 125 g ai/ha) was 50, the “Plant response rating, Ragweed” value (ragweed; 500 g ai/ha) was 70 and the “Plant response rating (scale of 0 to 100 where 0 is no effect and 100 is complete control)” value (foxtail, giant; 125 g ai/ha) was 98. The “Plant response rating (scale of 0 to 100 where 0 is no effect and 100 is complete control)” value (foxtail, giant; 250 g ai/ha) was 100, the “Foxtail … (0 to 100)” value (foxtail, giant; 31 g ai/ha) was 90 and the “Foxtail … (0 to 100)” value (foxtail, giant; 62 g ai/ha) was 95. For the same molecule, the “Wheat plant response rating (0 to 100)” value (wheat (winter wheat); 31 g ai/ha) was 0, the “Wheat plant response rating (0 to 100)” value (wheat (winter wheat); 62 g ai/ha) was 5 and the “Plant response rating (scale of 0 to 100 where 0 is no effect and 100 is complete control)” value (wheat (winter wheat)) was 35. For the same molecule, the “Plant response rating (0 to 100), Oilseed Rape” value (oilseed rape) was 10, the “Plant response rating: Oilseed Rape” value (oilseed rape; 62 g ai/ha) was 35 and the “Plant response rating: Oilseed Rape” value (oilseed rape; 125 g ai/ha) was 35. The “Plant response rating: Galium” value (galium; 16 g ai/ha) was 70, the “Plant response rating: Galium” value (galium; 31 g ai/ha) was 75 and the “Plant response rating: Galium” value (galium; 62 g ai/ha) was 80. For the same molecule, the “Plant response rating: Galium” value (galium; 125 g ai/ha) was 90, the “Plant response rating (0 to 100), Barley, Winter” value (barley, winter) was 25 and the “Plant response rating: Barley, Winter” value (barley, winter; 31 g ai/ha) was 35. For the same molecule, the “Plant response rating: Barley, Winter” value (barley, winter; 62 g ai/ha) was 40, the “Plant response rating: Barley, Winter” value (barley, winter; 125 g ai/ha) was 50 and the “Plant response rating (0 to 100), Barley, Spring” value (barley, spring) was 35. For the same molecule, the “Plant response rating: Barley, Spring” value (barley, spring; 31 g ai/ha) was 45, the “Plant response rating: Barley, Spring” value (barley, spring; 62 g ai/ha) was 45 and the “Plant response rating: Barley, Spring” value (barley, spring; 125 g ai/ha) was 50. For the same molecule, the “Plant response rating: Field Poppy” value (field poppy; 16 g ai/ha) was 75, the “Plant response rating: Field Poppy” value (field poppy; 31 g ai/ha) was 80 and the “Plant response rating: Field Poppy” value (field poppy; 62 g ai/ha) was 98. The “Plant response rating: Field Poppy” value (field poppy; 125 g ai/ha) was 100, the “Plant response rating, Ryegrass, Italian” value (ryegrass, Italian [3]; 125 g ai/ha) was 90 and the “Plant response rating, Ryegrass, Italian” value (ryegrass, Italian [3]; 500 g ai/ha) was 100. For the same molecule, the “Plant response rating (0 to 100), Pigweed” value (pigweed [4]) was 100, the “Plant response rating: Pigweed” value (pigweed [4]; 62 g ai/ha) was 100 and the “Plant response rating: Pigweed” value (pigweed [4]; 125 g ai/ha) was 100.

Source: patent US10681909B2, “Herbicidal triazoles” (FMC Corporation, priority 2014, dated 2020)
